Assay type in all cases: cell-based, male wister rats
Experiment [1] relates to fat cells. Put plainly: Decomposition of the fat in the fat cell by ACTH. To be noted: 37° C., two hours. As to the method: (§1) Fat tissues were separated from the epididymides of male wister rats weighing 150 to 180 g each, and fat cells were obtained therefrom in accordance with the Rodbell's method [M. Rodbell, J. Biol. Chem., 239, 375 (1964)]. A small section was prepared from 4 g of the fat tissue, and placed in 10 ml. of Krebs-Ringer bicarbonate buffer containing 0.4 g of albumin, 10 mg of collagenase and 5 mg of glucose, and having a pH value of 7.4. It was heated at 37° C. for 50 minutes, and subjected to centrifugal separation at 300 rpm, whereby a floating fat cell layer was separated. Added into the fat cell were 10 ml. of the aforesaid buffer (pH 7.4), and the solution was carefully stirred to wash the fat cell, followed by centrifugal separation at 300 rpm for 30 seconds. This procedure was repeated twice, whereby the fat cells were washed perfectly, and these fat cells were used for the tests.
The fat cells obtained by treating with collagenase were suspended in Krebs-Ringer bicarbonate buffer (KRB) having a pH value of 7.4. Placed into a test tube were 0.3 ml. of the solution thus obtained (containing 100 mg of fat cells), 0.1 ml. of ACTH solution containing 1 μg of ACTH, 0.1 ml. of each saponin solution containing 500 μg of saponin, and 0.3 ml. of a 5% alubumin solution in KRB, and having a pH value adjusted to 7.4. They were heated at 37° C. for two hours, and the amount of the resulting free fatty acid was determined in accordance with the Dole's method [V. P. Dole, J. Biol. Chem., 35, 150 (1958)].
Namely, 3 ml. of Dole's extract were separated into the reaction system, and 1 ml. of a thymol blue solution was added thereinto. Nitrogen was blown into the resulting solution, and the solution was titrated with a 0.008 N aqueous solution of sodium hydroxide, while it was being stirred. The amount of the resulting free fatty acid was determined in accordance with a calibration curve.
The rate of inhibition against fat decomposition was obtained in accordance with the following equation: [formula] wherein A stands for the amount of the free fatty acid formed by addition of ACTH along in the amount of 1 μg/ml.; and B stands for the amount of the free fatty acid formed by addition of ACTH and saponin in the amount of 1 μg/ml. and 20 μg/ml., respectively.

The subject of experiment [2] is fat cells. In words: Decomposition by adrenalin of the fat in the fat cells. Conditions: adrenalin 1 μg/ml + saponin 20 μg/ml; 37° C., two hours. As to the method:
A small section was prepared from 4 g of the fat tissue, and placed in 10 ml. of Krebs-Ringer bicarbonate buffer containing 0.4 g of albumin, 10 mg of collagenase and 5 mg of glucose, and having a pH value of 7.4. […] Added into the fat cell were 10 ml. of the aforesaid buffer (pH 7.4), and the solution was carefully stirred to wash the fat cell, followed by centrifugal separation at 300 rpm for 30 seconds. This procedure was repeated twice, whereby the fat cells were washed perfectly, and these fat cells were used for the tests.
The fat cells obtained by treating with collagenase were suspended in Krebs-Ringer phosphate buffer (KRP) having a pH value of 7.4. Placed into a test tube were 0.3 ml. of the solution thus obtained, and containing 100 mg of fat cells, 0.1 ml. of an adrenalin solution containing 1 μg of adrenalin, 0.1 ml. of a saponin solution containing 20 μg of saponin, and 0.5 ml. of a 5% albumin solution in KRP, and having a pH value adjusted to 7.4. […] More specifically, 3 ml. of Dole's extract were placed in the reaction system, and after they were shaked for five minutes, 3 ml. of heptane were dispensed, and 1 ml. of a thymol blue solution was added thereinto. The resulting solution was titrated with a 0.008 N aqueous solution of sodium hydroxide, while it was being stirred with nitrogen, and the amount of the resulting free fatty acid was determined in accordance with a calibration curve.
The rate of inhibition was obtained in accordance with the equation shown at (1) above.

In experiment [3] the test system is fat cells. Put plainly: Synthesis of fat from glucose in fat cells. To be noted: 20 μg/ml; for Power for synthesis of neutral fat from glucose: 37° C., half an hour; for Rate of promotion: none = 100. The method, then:
as §1
^14 C-glucose having its carbon atoms marked with radioactivity was reacted upon fat cells, and a Geiger count was read to determine the amount of the glucose participating in the fat synthesis and incorporated into the fat cells as a neutral fat, whereby gynosaponins were tested for their effects on the power of the glucose for fat synthesis.
More specifically, the fat cells obtained by treating with collagenase were suspended in KRB, and 0.35 ml. of the resulting solution containing 100 mg of fat cells was placed into a test tube with 0.1 ml. of each saponin solution containing 20 μg of saponin, 0.5 ml. of a 5% albumin solution in KRB, containing 10 mM glucose and having a pH value of 7.4, and 0.05 ml. of a ^14 C-glucose solution which was a 0.5 μCi KRP solution having a pH value of 7.4 and containing 10 mM glucose. They were heated at 37° C. for half an hour, and after 5 ml. of Dole's extract were added and the whole was shaked for five minutes, 3 ml. of heptane and 2 ml. of water were added, and the whole was shaked for five minutes. 3 ml. of a heptane layer were separated, and after an alkaline ethanol solution (0.5 N sodium hydroxide solution, 50 % ethanol solution) was added in the amount of 3 ml., the whole was shaked for five minutes. Then, 1 ml. of an ethanol layer was separated, and 10 ml. of a toluene scintillation solution were added thereinto, followed by determination according to the method of Skipski et al. [Biochem. Biophys. Acta, 106, 386 (1965)].

Where [4] appears, read: ACTH 1 μg/ml + saponin 20 μg/ml.

For the substance “20S,26-Hydroxyprotopanaxadiol-3-O-{[β-D-glucopyranosyl (1→2)-α-L-rhamnopyranosyl (1→6)]-β-D-glucopyranoside}-20-O-[α-L-rhamnopyranosyl (1→6)-β-D-glucopyranoside] [gynosaponin O]”, in experiment [1] (setting [4]), the “Free fatty acid formed by decomposition of fat” value (“Free fatty acid formed” below) was determined as 5.6 μ Eq/g and the Rate of inhibition was found to be 33%. In experiment [2], the “Free fatty acid formed” value was determined as 13.9 μ Eq/g and the Rate of inhibition came to 1%. Also, in experiment [3], the “Power for synthesis of neutral fat from glucose” value (“Power for synthesis” below) is reported as 8,263 cpm/g and the Rate of promotion stood at 38%.

For the substance “20S,26-Hydroxyprotopanaxadiol-3-O-{[β-D-glucopyranosyl (1→2)-α-L-rhamnopyranosyl (1→6)]-β-D-glucopyranoside}-20-O-[β-D-glucopyranosyl (1→6)-β-D-glucopyranoside] [gynosaponin T]”, in experiment [1] (setting [4]), the “Free fatty acid formed” value is 6.3 μ Eq/g and the Rate of inhibition was found to be 25%. In addition, in experiment [2], the “Free fatty acid formed” value amounted to 13.1 μ Eq/g and the Rate of inhibition is on record as 7%. In experiment [3], the “Power for synthesis” value is 11,150 cpm/g and the Rate of promotion is listed as 52%.

With “20S-Protopanaxadiol-3-O-{[β-D-glucopyranosyl (1→2)-α-L-rhamnopyranosyl (1→6)]-β-D-glucopyranoside} [progynosapogenin A--AH]”, in experiment [1] (setting [4]), the “Free fatty acid formed” value came to 6.3 μ Eq/g and the Rate of inhibition is given as 25%. Besides, in experiment [2], the “Free fatty acid formed” value turned out to be 12.4 μ Eq/g and the Rate of inhibition turned out to be 12%. Besides, in experiment [3], the “Power for synthesis” value is on record as 10,550 cpm/g and the Rate of promotion came to 49%.

For the substance “20S-Protopanaxadiol-3-O-{[β-D-glucopyranosyl (1→2)-α-L-rhamnopyranosyl (1→6)]-β-D-glucopyranoside}-20-O-[α-L-rhamnopyranosyl (1→6)-β-D-glucopyranoside] [gynosaponin B]”, in experiment [1] (setting [4]), the “Free fatty acid formed” value is reported as 6.9 μ Eq/g and the Rate of inhibition was 18%. Moreover, in experiment [2], the “Free fatty acid formed” value came out at 9.1 μ Eq/g and the Rate of inhibition is 35%. For the same substance, in experiment [3], the “Power for synthesis” value is reported as 12,308 cpm/g and the Rate of promotion turned out to be 57%.

Regarding “20S-Protopanaxadiol-3-O-{[β-D-glucopyranosyl (1→2)-α-L-rhamnopyranosyl (1→6)]-β-D-glucopyranoside}-20-O-[β-D-glucopyranosyl (1→6)-β-D-glucopyranoside] [gynosaponin A]”, in experiment [1] (setting [4]), the “Free fatty acid formed” value came to 6.1 μ Eq/g and the Rate of inhibition was determined as 27%. In experiment [2], the “Free fatty acid formed” value is 13.4 μ Eq/g and the Rate of inhibition came to 5%. Moreover, in experiment [3], the “Power for synthesis” value is reported as 8,013 cpm/g and the Rate of promotion was 37%.

With “20S-Protopanaxadiol-3-O-{[β-D-glucopyranosyl (1→2)-α-L-rhamnopyranosyl (1→6)]-β-D-glucopyranoside}-20-O-β-D-glucopyranoside [gynosaponin F]”, in experiment [1] (setting [4]), the “Free fatty acid formed” value amounted to 6.3 μ Eq/g and the Rate of inhibition is 25%. For the same substance, in experiment [2], the “Free fatty acid formed” value was 13.4 μ Eq/g and the Rate of inhibition is 5%. For the same substance, in experiment [3], the “Power for synthesis” value is given as 11,620 cpm/g and the Rate of promotion is on record as 54%.

“ACTH: ACTH, used at 1 μg/ml to decompose fat in fat cells (SYSMEHFRWGKPVGKKRRPVKVYPNGAEDESAEAFPLEF; Corticotropin; UniProt P01189 138-176, looked up) [reference compound]”: in experiment [1] (ACTH alone, 1 μg/ml), the “Free fatty acid formed” value amounted to 8.4 μ Eq/g.

The record behind these values is US4339442A, “Gynosaponins, their use and a process for preparing the same” (priority 1980, dated 1982).
